{"source": "paper PMC8413904", "about": "(Pharmacology Research & Perspectives, 2021)", "key": {"[1]": {"system": "cultured rat brain cortical neurons", "assay": "Dynamic calcium assay (Fluo‐8)", "type": "cell-based", "protocol": "(§1) All animal experimental procedures and housing have been approved by the Institutional Animal Care and Use Committee (IACUC) protocol #18‐015 of Virginia Tech. Embryonic day 18 (E18) rat brain tissue samples were obtained from adult pregnant SD rats. Rat brain primary cortical, striatal, and cerebellar neurons were cultured on poly‐d‐lysine coated 96‐well plates for 14 days in vitro (DIV14) before using for the experiments. Primary rat neuron culture was performed as previously published.[44] Briefly, each well of a 96 well plate was loaded with 50 000 cells and grown in 200 µl neurobasal media supplemented with B27, glutamax, penicillin, streptomycin. One hundred microliters of media was replaced with fresh media once in 4 days. Eight to thirteen fetus were obtained from each pregnant rat. Brain tissue from these fetus were pooled to obtain the neurons. Cortical, striatal, and cerebellar neuron assays were carried out at different time points.\nDynamic calcium assay was carried out, using Fluo‐8 no‐wash kit (abcam, ab112129), as per the manufacturer's instructions with minor modifications to fit with experimental necessities. On DIV14, all 200 μl of media was removed and replaced it with 100 μl of HBSS and 100 μl of Fluo‐8 dye loading solution. The plates were incubated at 37°C for 30 min and at room temperature for 30 min. […] Costar 96‐well clear bottom black side plates were read from the bottom, nine times, with 60 s intervals between each read. Temperature was set at 37°C and reading speed was 100 ms."}, "GluN1/2A [2]": {"target": "T1, GluN1/2A (UniProt P35439+Q12879)", "T1 sequence (Q12879 23-1464, other chains not shown)": "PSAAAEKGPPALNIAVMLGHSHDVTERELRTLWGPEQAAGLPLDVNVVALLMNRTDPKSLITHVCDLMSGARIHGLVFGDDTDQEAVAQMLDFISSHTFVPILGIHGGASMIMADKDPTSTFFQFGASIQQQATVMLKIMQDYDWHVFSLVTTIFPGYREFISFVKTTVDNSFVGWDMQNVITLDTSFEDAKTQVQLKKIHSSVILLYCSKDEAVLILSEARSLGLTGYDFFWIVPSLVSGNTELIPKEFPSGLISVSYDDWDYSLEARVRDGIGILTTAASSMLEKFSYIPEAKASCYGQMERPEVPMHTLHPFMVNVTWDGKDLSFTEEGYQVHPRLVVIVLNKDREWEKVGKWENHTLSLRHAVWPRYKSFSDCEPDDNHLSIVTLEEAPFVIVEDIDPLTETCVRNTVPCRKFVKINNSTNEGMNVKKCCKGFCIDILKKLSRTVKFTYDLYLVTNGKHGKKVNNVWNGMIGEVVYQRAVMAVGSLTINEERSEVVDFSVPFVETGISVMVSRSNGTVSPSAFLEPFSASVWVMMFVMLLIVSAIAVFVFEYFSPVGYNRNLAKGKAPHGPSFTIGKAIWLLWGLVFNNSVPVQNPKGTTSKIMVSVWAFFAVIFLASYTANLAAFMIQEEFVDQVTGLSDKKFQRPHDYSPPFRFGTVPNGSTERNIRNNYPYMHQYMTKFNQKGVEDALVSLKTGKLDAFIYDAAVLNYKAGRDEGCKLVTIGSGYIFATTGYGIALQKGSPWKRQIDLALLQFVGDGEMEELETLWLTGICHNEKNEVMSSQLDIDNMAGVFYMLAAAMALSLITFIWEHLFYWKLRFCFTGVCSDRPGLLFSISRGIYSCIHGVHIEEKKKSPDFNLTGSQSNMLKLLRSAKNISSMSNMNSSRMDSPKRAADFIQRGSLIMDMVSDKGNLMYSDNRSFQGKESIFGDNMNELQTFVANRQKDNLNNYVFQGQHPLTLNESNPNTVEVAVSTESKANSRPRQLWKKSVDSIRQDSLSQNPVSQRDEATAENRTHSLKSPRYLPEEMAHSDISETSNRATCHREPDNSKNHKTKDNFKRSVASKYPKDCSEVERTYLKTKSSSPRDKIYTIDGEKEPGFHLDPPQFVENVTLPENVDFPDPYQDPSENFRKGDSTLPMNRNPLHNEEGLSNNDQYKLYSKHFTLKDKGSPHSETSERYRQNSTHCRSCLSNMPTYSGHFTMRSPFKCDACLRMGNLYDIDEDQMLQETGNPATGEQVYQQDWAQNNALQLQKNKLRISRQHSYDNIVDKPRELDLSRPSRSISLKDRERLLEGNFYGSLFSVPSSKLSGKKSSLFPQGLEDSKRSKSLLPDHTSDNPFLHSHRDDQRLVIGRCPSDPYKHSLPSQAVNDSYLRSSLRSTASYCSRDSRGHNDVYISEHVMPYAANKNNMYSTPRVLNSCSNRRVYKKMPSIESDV", "parameters": "method as in PMID 30553788", "conditions": "at −60 mV; read-out: Mg^2+ IC50; cited from earlier work"}, "GluN1/2D": {"target": "GluN1/2D (UniProt O15399+P35439)", "sequence (O15399 28-1336, other chains not shown)": "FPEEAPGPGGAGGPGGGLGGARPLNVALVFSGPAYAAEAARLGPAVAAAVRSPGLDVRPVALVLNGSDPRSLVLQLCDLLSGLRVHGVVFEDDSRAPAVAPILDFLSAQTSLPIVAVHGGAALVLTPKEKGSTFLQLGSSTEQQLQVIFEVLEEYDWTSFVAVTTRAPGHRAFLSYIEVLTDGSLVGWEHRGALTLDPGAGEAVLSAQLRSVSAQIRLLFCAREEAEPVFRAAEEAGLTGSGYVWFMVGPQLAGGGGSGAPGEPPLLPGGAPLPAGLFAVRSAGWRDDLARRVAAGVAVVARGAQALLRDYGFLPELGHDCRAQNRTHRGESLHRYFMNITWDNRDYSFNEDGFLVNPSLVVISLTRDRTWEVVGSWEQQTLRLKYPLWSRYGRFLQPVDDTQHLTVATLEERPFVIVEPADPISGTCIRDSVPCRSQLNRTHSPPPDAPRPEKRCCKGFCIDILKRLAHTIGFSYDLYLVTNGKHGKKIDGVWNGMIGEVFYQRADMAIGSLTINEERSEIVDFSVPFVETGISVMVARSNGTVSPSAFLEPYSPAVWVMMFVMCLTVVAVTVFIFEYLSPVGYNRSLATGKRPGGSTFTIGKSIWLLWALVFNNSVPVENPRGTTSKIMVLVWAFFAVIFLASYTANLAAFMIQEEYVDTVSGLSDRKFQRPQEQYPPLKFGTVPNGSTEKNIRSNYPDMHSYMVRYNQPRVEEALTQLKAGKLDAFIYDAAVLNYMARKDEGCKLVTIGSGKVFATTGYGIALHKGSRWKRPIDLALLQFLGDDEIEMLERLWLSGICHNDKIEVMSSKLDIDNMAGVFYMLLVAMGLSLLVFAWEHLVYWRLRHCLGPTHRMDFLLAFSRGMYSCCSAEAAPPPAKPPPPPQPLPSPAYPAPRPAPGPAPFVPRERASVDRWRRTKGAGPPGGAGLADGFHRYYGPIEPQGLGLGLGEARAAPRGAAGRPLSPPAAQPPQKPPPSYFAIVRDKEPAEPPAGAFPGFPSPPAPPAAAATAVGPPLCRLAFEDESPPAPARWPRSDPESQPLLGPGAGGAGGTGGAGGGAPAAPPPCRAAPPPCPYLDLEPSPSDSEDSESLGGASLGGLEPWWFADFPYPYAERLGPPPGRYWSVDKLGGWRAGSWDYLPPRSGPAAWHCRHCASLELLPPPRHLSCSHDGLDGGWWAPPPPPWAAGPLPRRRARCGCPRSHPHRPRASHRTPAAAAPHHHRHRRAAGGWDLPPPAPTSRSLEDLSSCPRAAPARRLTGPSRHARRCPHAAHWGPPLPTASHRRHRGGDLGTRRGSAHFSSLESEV", "assay": "TEVC electrophysiology dose–response in xenopus oocytes", "type": "cell-based", "parameters": "host or cells: Xenopus oocytes (cRNA injection)", "text": "(§4) NMDAR constructs: cDNA encoding the NMDAR1a subunit (GluN1a) was obtained from Dr. Nakanishi. cDNA encoding the GluN2B (pci_sepGluN2B) was developed initially in the Malinow lab[36] and purchased from Addgene (cat# 23998). cDNA encoding the GluN2C and GluN2D were purchased from GenScript. Mutated GluN1, 2A and 2B cDNA constructs capable of assembling as GluN1/2A/2B triheteromeric (1/2AB) receptors[37] were obtained from Dr. Paoletti (Laboratoire de Neurobiologie, CNRS). […] Plasmids were linearized with NotI (GluN1a) or Avrll (GluN2B), or BstB1 (GluN2C and GluN2D) and transcribed in vitro with T7 (GluN1a, GluN1/2A, GluN2B, GluN2C, & GluN2D) RNA polymerase using the mMessage mMachine transcription kits (Invitrogen by Thermo Fisher Scientific).\n(§5) Stage IV frog oocytes were obtained from Xenopus‐I. NMDAR subunit cRNAs were suspended in nuclease‐free sterile water. GluN1A, GluN2B, GluN2C, GluN2D, and GluN1/2A/2B cRNAs were mixed in a ratio of 1:1–3. 50 nl of the final cRNA mixture was microinjected (40–70 ng total) into the oocyte cytoplasm. Oocytes were incubated in ND‐96 solution at 18^◦C prior to electrophysiological recordings (1–3 days).\nElectrophysiological responses were measured using a standard two‐microelectrode voltage‐clamp workstation [Warner Instruments (Hamden, Connecticut) model OC‐725C] designed to provide a fast clamp of large cells. The recording buffer contained 116 mM NaCl, 2 mM KCl, 0.3 mM BaCl2, and 5 mM HEPES, pH 7.4. Response magnitude was determined in xenopus oocytes expressing different NMDAR subunits (GluN1/2A, 1/2B, 1/2C, 1/2D, and 1/2A/2B) by the steady plateau response elicited by bath application of different agonist concentrations. […] Response amplitudes for functional NMDARs were generally between 0.1 and 2 μA. […] Dose–response relationships were fit to an appropriate curve‐fitting equation using GraphPad Prism‐7. Nonlinear regression was used to calculate EC50 and/or percentage maximal response. […] Statistical significance was determined at the overall alpha level .05, using appropriate statistical methods as described in each figure captions."}, "[3]": {"system": "cultured rat brain cortical neurons", "assay": "Na^+ assay (CoroNa green‐AM)", "type": "cell-based", "protocol": "as §1\nFor Na^+ assay, DIV14 neurons were washed with HBSS and treated with freshly prepared CoroNa green‐AM dye (ThermoFisher, cat # C36676) and incubated for 45 min in 37°C. […] RFU values of background control and treatments were plotted to identify the effect of CNS4 on NMDA‐induced Na^+ flux in the neurons."}, "GluN1/2A [4]": {"target": "T1, GluN1/2A", "assay": "TEVC electrophysiology dose–response in xenopus oocytes", "type": "cell-based", "text": "as §4, §5\nElectrophysiological responses were measured using a standard two‐microelectrode voltage‐clamp workstation [Warner Instruments (Hamden, Connecticut) model OC‐725C] designed to provide a fast clamp of large cells. The recording buffer contained 116 mM NaCl, 2 mM KCl, 0.3 mM BaCl2, and 5 mM HEPES, pH 7.4. Response magnitude was determined in xenopus oocytes expressing different NMDAR subunits (GluN1/2A, 1/2B, 1/2C, 1/2D, and 1/2A/2B) by the steady plateau response elicited by bath application of different agonist concentrations. […] Response amplitudes for functional NMDARs were generally between 0.1 and 2 μA. […] Dose–response relationships were fit to an appropriate curve‐fitting equation using GraphPad Prism‐7. Nonlinear regression was used to calculate EC50 and/or percentage maximal response. Curve fittings were done using the following equations as performed in the previous studies[34], [39]: Y = 100/(1 + 10^(LogEC50‐X)) or Y = Bottom + (Top − Bottom)/(1+10^(LogEC50‐X)). Statistical significance was determined at the overall alpha level .05, using appropriate statistical methods as described in each figure captions."}, "[5]": {"system": "cultured rat brain cerebellar neurons", "assay": "Dynamic calcium assay (Fluo‐8)", "type": "cell-based", "conditions": "300 µM NMDA alone", "protocol": "as §1\n(§2) Dynamic calcium assay was carried out, using Fluo‐8 no‐wash kit (abcam, ab112129), as per the manufacturer's instructions with minor modifications to fit with experimental necessities. On DIV14, all 200 μl of media was removed and replaced it with 100 μl of HBSS and 100 μl of Fluo‐8 dye loading solution. The plates were incubated at 37°C for 30 min and at room temperature for 30 min. A volume of 100 µL of test chemicals (3× of desired final concentration) was added to the plates immediately before running the calcium flux assay and read the fluorescence intensity at 490/525 nm (ex/em) using Synergy microplate reader, BioTek, VT. Costar 96‐well clear bottom black side plates were read from the bottom, nine times, with 60 s intervals between each read. Temperature was set at 37°C and reading speed was 100 ms."}, "[6]": {"system": "cultured rat brain striatal neurons", "assay": "Dynamic calcium assay (Fluo‐8)", "type": "cell-based", "conditions": "300 µM NMDA alone", "protocol": "as §1, §2"}, "[7]": {"system": "cultured rat brain cerebellar neurons", "assay": "Na^+ assay (CoroNa green‐AM)", "type": "cell-based", "conditions": "300 µM NMDA alone", "protocol": "as §1\n(§3) For Na^+ assay, DIV14 neurons were washed with HBSS and treated with freshly prepared CoroNa green‐AM dye (ThermoFisher, cat # C36676) and incubated for 45 min in 37°C. Plates were washed twice with HBSS before adding drug solutions dissolved in HBSS, and read at 492/516 nm (ex/em) using a plate reader. RFU values of background control and treatments were plotted to identify the effect of CNS4 on NMDA‐induced Na^+ flux in the neurons."}, "[8]": {"system": "cultured rat brain striatal neurons", "assay": "Na^+ assay (CoroNa green‐AM)", "type": "cell-based", "conditions": "300 µM NMDA alone", "protocol": "as §1, §3"}}, "note": "Like-named read-outs stand apart in the source and are kept apart here.", "data": [{"compound": "NCCCC(=O)O", "note": "[GABA, reference compound]", "values": [{"measurement": "Ca^2+ signal, mean rfu", "setting": "[1]; 100 µM GABA, baseline 7673, p < .0001", "result": 4196, "unit": "rfu"}]}, {"compound": "picrotoxin [reference compound]", "values": [{"measurement": "effect on GABA mediated reduction of baseline Ca^2+ response", "setting": "[1]; 50 µM picrotoxin + 100 µM GABA", "result": "unaltered"}]}, {"compound": "C[N+](C)(C)CCCCCC[N+](C)(C)C", "note": "[Hexamethonium, reference compound]", "values": [{"measurement": "Ca^2+ signal, mean rfu", "setting": "[1]; 50 µM hexamethonium + 100 µM acetylcholine, p > .9999 vs acetylcholine (6222)", "result": 6228, "unit": "rfu"}]}, {"compound": "[Cl-].[Cl-].[Mg+2]", "note": "[MgCl2]", "values": [{"measurement": "IC50", "setting": "GluN1/2A [2]", "result": 40, "unit": "µM"}]}, {"compound": "N[C@@H](CCC(=O)O)C(=O)O", "note": "[glutamate, L‐glutamic acid, reference compound]", "values": [{"measurement": "EC50", "setting": "GluN1/2D", "result": "0.34 ± 0.01", "unit": "µM"}, {"measurement": "Ca^2+ signal, mean rfu", "setting": "[1]; 100 µM glutamate, Figure 8A, baseline 7673", "result": 21956, "unit": "rfu"}, {"measurement": "Na^+ signal, mean rfu", "setting": "[3]; 100 µM glutamate, Figure 8B, baseline vs glutamate 514004 vs. 505677, p = .4055", "result": 505677, "unit": "rfu"}]}, {"compound": "CC(C(O)c1ccc(O)cc1)N1CCC(Cc2ccccc2)CC1", "note": "(stereo not shown) [ifenprodil, reference compound]", "values": [{"measurement": "IC50", "setting": "GluN1/2A [4]", "result": "202 ± 25.1", "unit": "µM"}]}, {"compound": "CC12CC3CC(C)(C1)CC(N)(C3)C2", "note": "[memantine, reference compound]", "values": [{"measurement": "effect on NMDA‐induced Ca^2+ signal", "setting": "[1]; 50 µM memantine added to NMDA, Figure 6", "result": "reversed the NMDA‐induced Ca^2+ signal back to the control level"}, {"measurement": "Na^+ signal, mean rfu", "setting": "[3]; NMDA plus 50 µM memantine, p < .01 vs NMDA alone (400251)", "result": 412868, "unit": "rfu"}]}, {"compound": "CN[C@H](CC(=O)O)C(=O)O", "note": "[NMDA, N‐methyl D‐aspartate, reference compound]", "values": [{"measurement": "Ca^2+ signal, rfu", "setting": "[5]", "result": 12810, "unit": "rfu"}, {"measurement": "Ca^2+ signal, mean rfu", "setting": "[6]", "result": 20964, "unit": "rfu"}, {"measurement": "Ca^2+ signal, mean rfu", "setting": "[1]; 300 µM NMDA alone", "result": 26711, "unit": "rfu"}, {"measurement": "Na^+ signal compared to the background control", "setting": "[7]", "result": "did not significantly increase"}, {"measurement": "Na^+ signal compared to the background control", "setting": "[8]", "result": "did not significantly increase"}]}, {"compound": "CC(=O)OCC[N+](C)(C)C", "note": "[acetylcholine, reference compound]", "values": [{"measurement": "Ca^2+ signal, mean rfu", "setting": "[1]; 100 µM acetylcholine, baseline 7673, p < .0001", "result": 6222, "unit": "rfu"}]}]}
